Test results reported in patent US20250382296A1, “NITROGEN-CONTAINING FUSED THREE RING PRMT5 INHIBITOR, AND PREPARATION METHOD THEREFOR AND PHARMACEUTICAL USE THEREOF” (Abbisko Therapeutics Co., Ltd., priority 2022, published 2025).

Legend:
[1] = system: HCT 116 wild-type MTAP cells; experiment: Inhibition of proliferation of HCT116 wild-type MTAP cells (CellTiter-Glo, 6 days); format: cell-based; details: Homo sapiens, HCT-116, 144 h
Method: (§1) 1. HCT 116 MTAP-knockout cells and HCT 116 wild-type MTAP cells were plated in 96-well flat-bottom plates and cultured overnight at 37° C. and […] in McCoy's 5A medium containing 10% fetal bovine serum+1% penicillin-streptomycin.
(§2) 2. The next day, compounds were each dissolved in DMSO, diluted successively with DMSO and medium and then transferred to cell plates; the final concentration of each compound was 10 μM, 4-fold dilution was performed to obtain 9 concentration points, and a DMSO control was provided.
(§3) 3. Cells not treated with compound were subjected to CellTiter-Glo Luminescent Cell Viability Assay (Promega) to detect the cell viability, and reference was made to the kit instructions for the operation; the plates were then placed on an EnVision Multilabel Reader to detect luminescence signals.
(§4) 4. Meanwhile, the cell plates containing cells treated with compounds were cultured continuously at 37° C. and […] CO2 for 6 days.
(§5) 5. Then, the cell viability was also detected by CellTiter-Glo.
(§6) 6. Finally, dose response curves were plotted using the four parameter dose response curve module of GraphPad Prism v 9.2.0 software and proliferation inhibition IC50 (unit: nM) was calculated.

[2] = system: HCT 116 MTAP-knockout cells; experiment: Inhibition of proliferation of HCT116 MTAP-knockout cells (CellTiter-Glo, 6 days); format: cell-based, human; details: for IC50: Homo sapiens, HCT-116, 144 h, proliferation inhibition, HCT116 MTAP-knockout, 6 days, CellTiter-Glo; for Selectivity: IC50 HCT116 wild-type cells / IC50 HCT116 MTAP-knockout cells
Method: as §1, §2, §3, §4, §5, §6

SMILES	IC50 [1]	IC50 [2]	Selectivity [2]
CCn1cc(N(C(=O)c2ccc3nc(N)c4cncn4c3c2)[C@@H]2COc3cc(C(F)(F)F)ccc32)cn1 [Example 208a, (S)-4-amino-N-(1-ethyl-1H-pyrazol-4-yl)-N-(6-(trifluoromethyl)-2,3-dihydrobenzofuran-3-yl)imidazo[1,5-a]quinoxaline-8-carboxamide]	523 nM	5 nM	104.6
Nc1nc2cc(Cl)c(C(=O)N(Cc3ccc(C(F)(F)F)cn3)CC3CC3)cc2n2cncc12 [Example 165, 4-amino-7-chloro-N-(cyclopropylmethyl)-N-((5-(trifluoromethyl)pyridin-2-yl)methyl)imidazo[1,5-a]quinoxaline-8-carboxamide]	358 nM	11 nM	32.5
Nc1nc2cc(F)c(C(=O)N(Cc3ccc(C(F)(F)F)nn3)CC3CC3)cc2n2cncc12 [Example 215, 4-amino-N-(cyclopropylmethyl)-7-fluoro-N-((6-(trifluoromethyl)pyridazin-3-yl)methyl)imidazo[1,5-a]quinoxaline-8-carboxamide]	314 nM	8 nM	39.3
CC(C1CC1)N(Cc1ccc(C(F)(F)F)cn1)C(=O)c1ccc2nc(N)c3cnn(C)c3c2c1 (stereo not drawn) [Comparative compound 3, reference compound]	96 nM	6 nM	16
Nc1nc2ccc(C(=O)N(CC3CC3)C3CCc4cc(C(F)(F)F)ccc43)cc2n2cncc12 (stereo not drawn) [Example 22, 4-amino-N-(cyclopropylmethyl)-N-(5-(trifluoromethyl)-2,3-dihydro-1H-inden-1-yl)imidazo[1,5-a]quinoxaline-8-carboxamide]	5480 nM	154 nM	35.6
Cc1cc2nc(N)c3cncn3c2cc1C(=O)N1C[C@@H](C)CC[C@@H]1c1ccc2scnc2c1 [Example 228, (4-amino-7-methylimidazo[1,5-a]quinoxalin-8-yl)((2R,5S)-2-(benzo[d]thiazol-5-yl)-5-methylpiperidin-1-yl)methanone]	5320 nM	102 nM	52.1
CC(C1CC1)N(Cc1ccc(C(F)(F)F)cn1)C(=O)c1ccc2nc(N)c3cncn3c2c1 (stereo not drawn) [Example 145, 4-amino-N-(1-cyclopropylethyl)-N-((5-(trifluoromethyl)pyridin-2-yl)methyl)imidazo[1,5-a]quinoxaline-8-carboxamide]	1080 nM	24 nM	44.8
CN(Cc1ccc(C(F)(F)F)cn1)C(=O)c1ccc2nc(N)c3cncn3c2c1 [Example 146, 4-amino-N-methyl-N-((5-(trifluoromethyl)pyridin-2-yl)methyl)imidazo[1,5-a]quinoxaline-8-carboxamide]	> 10000 nM	224 nM	>44.6
Nc1nc2cc(Cl)c(C(=O)N(Cc3ccc(C(F)(F)F)nn3)CC3CC3)cc2n2cncc12 [Example 212, 4-amino-7-chloro-N-(cyclopropylmethyl)-N-((6-(trifluoromethyl)pyridazin-3-yl)methyl)imidazo[1,5-a]quinoxaline-8-carboxamide]	383 nM	8 nM	47.9
Nc1nc2ccc(C(=O)N(CC3CC3)[C@@H]3CCc4nc(C(F)(F)F)ccc43)cc2n2cncc12 [Example 34a, (R)-4-amino-N-(cyclopropylmethyl)-N-(2-(trifluoromethyl)-6,7-dihydro-5H-cyclopenta[b]pyridin-5-yl)imidazo[1,5-a]quinoxaline-8-carboxamide]		225 nM	
CC(c1ccc(C(F)(F)F)cn1)N(CC1CC1)C(=O)c1ccc2nc(N)c3cncn3c2c1 (stereo not drawn) [Example 203, 4-amino-N-(cyclopropylmethyl)-N-(1-(5-(trifluoromethyl)pyridin-2-yl)ethyl)imidazo[1,5-a]quinoxaline-8-carboxamide]		155 nM	
CN(Cc1ccc(C(F)(F)F)cn1)C(=O)c1cc2c(cc1F)nc(N)c1cccn12 [Example 232, 4-amino-7-fluoro-N-methyl-N-((5-(trifluoromethyl)pyridin-2-yl)methyl)pyrrolo[1,2-a]quinoxaline-8-carboxamide]		2240 nM	
Nc1nc2ccc(C(=O)N(CC3CC3)[C@H]3CCc4nc(C(F)(F)F)ccc43)cc2n2cncc12 [Example 34b, (S)-4-amino-N-(cyclopropylmethyl)-N-(2-(trifluoromethyl)-6,7-dihydro-5H-cyclopenta[b]pyridin-5-yl)imidazo[1,5-a]quinoxaline-8-carboxamide]		1820 nM	
COCCN(Cc1ccc(C(F)(F)F)cn1)C(=O)c1ccc2nc(N)c3cnc(C)n3c2c1 [Example 224, 4-amino-N-(2-methoxyethyl)-1-methyl-N-((5-(trifluoromethyl)pyridin-2-yl)methyl)imidazo[1,5-a]quinoxaline-8-carboxamide]		323 nM	
Nc1nc2ccc(C(=O)N(Cc3ccc(OC(F)(F)F)cn3)CC3CC3)cc2n2cncc12 [Example 158, 4-amino-N-(cyclopropylmethyl)-N-((5-(trifluoromethoxy)pyridin-2-yl)methyl)imidazo[1,5-a]quinoxaline-8-carboxamide]		68 nM	

Continued, in another order:

IC50 [1]	IC50 [2]	SMILES	Selectivity [2]
47 nM	2 nM	Cn1cc(N(C(=O)c2cc3c(cc2F)nc(N)c2cncn23)[C@@H]2COc3cc(C(F)(F)F)ccc32)cn1 [Example 218, (S)-4-amino-7-fluoro-N-(1-methyl-1H-pyrazol-4-yl)-N-(6-(trifluoromethyl)-2,3-dihydrobenzofuran-3-yl)imidazo[1,5-a]quinoxaline-8-carboxamide]	23.5
564 nM	17 nM	Cn1cc(N(C(=O)c2cc3c(cc2F)nc(N)c2cccn23)[C@@H]2COc3cc(C(F)(F)F)ccc32)cn1 [Example 233, (S)-4-amino-7-fluoro-N-(1-methyl-1H-pyrazol-4-yl)-N-(6-(trifluoromethyl)-2,3-dihydrobenzofuran-3-yl)pyrrolo[1,2-a]quinoxaline-8-carboxamide]	33.2
725 nM	12 nM	Cn1cc(N(C(=O)c2ccc3nc(N)c4cncn4c3c2)C2COc3cc(C(F)(F)F)ccc32)cn1 (stereo not drawn) [Example 30, 4-amino-N-(1-methyl-1H-pyrazol-4-yl)-N-(6-(trifluoromethyl)-2,3-dihydrobenzofuran-3-yl)imidazo[1,5-a]quinoxaline-8-carboxamide]	60.4
59 nM	1 nM	Cn1cc(N(C(=O)c2cc3c(cc2Cl)nc(N)c2cncn23)[C@@H]2COc3cc(C(F)(F)F)ccc32)cn1 [Example 210a, (S)-4-amino-7-chloro-N-(1-methyl-1H-pyrazol-4-yl)-N-(6-(trifluoromethyl)-2,3-dihydrobenzofuran-3-yl)imidazo[1,5-a]quinoxaline-8-carboxamide]	59
	3130 nM	Nc1nc2ccc(C(=O)N(CC3CC3)[C@H]3COc4nc(C(F)(F)F)ccc43)cc2n2cncc12 [Example 181b, (R)-4-amino-N-(cyclopropylmethyl)-N-(6-(trifluoromethyl)-2,3-dihydrofuro[2,3-b]pyridin-3-yl)imidazo[1,5-a]quinoxaline-8-carboxamide]	
207 nM	5 nM	Cc1ncc2c(N)nc3cc(F)c(C(=O)N(c4cnn(C)c4)[C@@H]4COc5cc(C(F)(F)F)ccc54)cc3n12 [Example 2, (S)-4-amino-7-fluoro-1-methyl-N-(1-methyl-1H-pyrazol-4-yl)-N-(6-(trifluoromethyl)-2,3-dihydrobenzofuran-3-yl)imidazo[1,5-a]quinoxaline-8-carboxamide]	41.4
257 nM	3 nM	Cn1cc(N(C(=O)c2cc3c(cc2F)nc(N)c2cncn23)[C@@H]2COc3nc(C(F)(F)F)ccc32)cn1 [Example 219, (S)-4-amino-7-fluoro-N-(1-methyl-1H-pyrazol-4-yl)-N-(6-(trifluoromethyl)-2,3-dihydrofuro[2,3-b]pyridin-3-yl)imidazo[1,5-a]quinoxaline-8-carboxamide]	85.7
2240 nM	41 nM	Cc1cc2nc(N)c3cncn3c2cc1C(=O)N(c1cnn(C)c1)[C@@H]1COc2nc(C(F)(F)F)ccc21 [Example 206a, (S)-4-amino-7-methyl-N-(1-methyl-1H-pyrazol-4-yl)-N-(6-(trifluoromethyl)-2,3-dihydrofuro[2,3-b]pyridin-3-yl)imidazo[1,5-a]quinoxaline-8-carboxamide]	54.5
	313 nM	Cn1cc(N(C(=O)c2ccc3nc(N)c4cncn4c3c2)[C@@H]2COc3nc(C(F)(F)F)ccc32)cn1 [Example 205a, (S)-4-amino-N-(1-methyl-1H-pyrazol-4-yl)-N-(6-(trifluoromethyl)-2,3-dihydrofuro[2,3-b]pyridin-3-yl)imidazo[1,5-a]quinoxaline-8-carboxamide]	
	238 nM	CN(C(=O)c1ccc2nc(N)c3cncn3c2c1)C1COc2nc(C(F)(F)F)ccc21 (stereo not drawn) [Example 204, 4-amino-N-methyl-N-(6-(trifluoromethyl)-2,3-dihydrofuro[2,3-b]pyridin-3-yl)imidazo[1,5-a]quinoxaline-8-carboxamide]	
